{
  "source": "paper PMC5382161",
  "about": "(Frontiers in Microbiology, 2017)",
  "key": {"[1]": {"tested_on": "Mycobacterium smegmatis mc^2 155", "test": "microbe, parasite or virus in culture", "type": "cell-based"}, "[2]": {"tested_on": "Mycobacterium tuberculosis H37Rv", "set-up": "method as in Rezayan et al., 2012; Upadhyay et al., 2012", "settings": "ref Rezayan et al., 2012, Upadhyay et al.; cited from earlier work"}, "[3]": {"tested_on": "M. smegmatis mc^2 155", "test": "Bacterial cell length by bright field microscopy", "type": "cell-based, Mycobacterium smegmatis"}, "[4]": {"target": "T1, MtbFtsZ (Mycobacterium tuberculosis, UniProt P9WN95)", "T1 construct": "inferred from pET15 vector and Ni-NTA purification; made in house; host or cells: E. coli BL21 (DE3) Rosetta", "T1 sequence (P9WN95 1-379)": "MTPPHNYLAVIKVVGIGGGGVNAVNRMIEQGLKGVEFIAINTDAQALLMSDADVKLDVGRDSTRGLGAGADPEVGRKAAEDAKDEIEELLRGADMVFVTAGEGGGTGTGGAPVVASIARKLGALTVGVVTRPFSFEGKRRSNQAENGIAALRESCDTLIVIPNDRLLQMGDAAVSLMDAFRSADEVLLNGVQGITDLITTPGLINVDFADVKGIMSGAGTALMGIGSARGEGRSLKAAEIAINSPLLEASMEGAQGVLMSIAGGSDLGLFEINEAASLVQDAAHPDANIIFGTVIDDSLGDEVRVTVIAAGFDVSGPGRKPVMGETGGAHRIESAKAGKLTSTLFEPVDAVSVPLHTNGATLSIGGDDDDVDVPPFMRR", "type": "biochemical"}, "[5]": {"target": "T2, MtbFtsZ wild type (Mycobacterium tuberculosis, UniProt P9WN95)", "T2 construct": "inferred from pET15 vector and Ni-NTA purification; made in house; host or cells: E. coli BL21 (DE3) Rosetta", "T2 sequence (P9WN95 1-379)": "T1 sequence (P9WN95 1-379)", "type": "biochemical"}, "[6]": {"target": "T2, MtbFtsZ wild type", "type": "biochemical", "remark": "listed apart in the source"}, "[7]": {"tested_on": "FtsZ localization in M. smegmatis mc^2 155", "test": "FtsZ localization by immunofluorescence microscopy", "type": "cell-based, Mycobacterium smegmatis", "settings": "late logarithmic phase cells grown with compound for 4 h", "protocol": "The effect of coumarins on the Z-ring formation of M. smegmatis was determined with immunofluoresence microscopy using anti-FtsZ antibodies (Dziedzic et al., [2010]). Late logarithmic phase cells were grown in the presence and absence of coumarins for 4 h. The cells were fixed with formaldehyde washed with phosphate buffer, and immuno-stained with polyclonal anti-FtsZ rabbit antibody (GeneTeX, USA) overnight at 4°C. Alexa fluor (488) goat anti-rabbit secondary antibody (Invitrogen, USA) was used for visualizing Z-rings. The nuclear material was visualized by using an anti-mountant containing DAPI. The cells were visualized in 63 X objective using a Carl-Zeiss fluorescence Microscope (Axio Imager 2 for Life Science Research, Germany). The images were visualized and processed using ZEN image processing software."}, "[8]": {"tested_on": "bacteria", "set-up": "method as in Jaiswal et al., 2007; Bhattacharya et al., 2013", "settings": "ref Jaiswal et al., 2007; Bhattacharya et al., 2013; cited from earlier work"}, "[9]": {"settings": "Mycolicibacterium smegmatis, MC^2155, 48 h, M. smegmatis mc^2 155, MABA, 37°C, 48 h, read-out: MIC"}, "[10]": {"settings": "Mycolicibacterium smegmatis, MC^2155, 48 h"}, "[11]": {"settings": "M. smegmatis mc^2 155, MABA, 37°C, 48 h"}},
  "note": "Where two headings read alike, the source gives them in different places.",
  "data": [
    {"smiles": "Cc1ccc2oc(=O)ccc2c1", "note": "[6-Methylcoumarin]", "values": [
      {"measurement": "MIC", "setting": "[1]; [9]", "result": "46.8 ± 4.3", "unit": "µM"}
    ]},
    {"smiles": "O=c1ccc2ccc(O)cc2o1", "note": "[Umbelliferone]", "values": [
      {"measurement": "MIC", "setting": "[1]; [10]", "result": "46.2 ± 3.2", "unit": "µM"},
      {"measurement": "MIC", "setting": "[2]", "result": 58.3, "unit": "µg/mL"}
    ]},
    {"smiles": "O=c1ccc2cc(O)c(O)cc2o1", "note": "[Esculetin]", "values": [
      {"measurement": "MIC", "setting": "[1]; [10]", "result": "48.2 ± 5.7", "unit": "µM"},
      {"measurement": "increase of bacterial length", "setting": "[3]", "result": 4, "unit": "fold"},
      {"measurement": "maximum bacterial length", "setting": "[3]", "result": "17.85 ± 4.5", "unit": "μm"},
      {"measurement": "protofilament formation (TEM)", "setting": "[4]", "result": "did not allow the formation of network for a protofilament"}
    ]},
    {"smiles": "COc1ccc2cc3[n+](cc2c1OC)CCc1cc2c(cc1-3)OCO2", "note": "[Berberine]", "values": [
      {"measurement": "inhibition of the GTPase activity of the protein", "setting": "[5]", "result": "75% ± 2.5"},
      {"measurement": "inhibition of the polymerization activity of the protein", "setting": "[6]", "result": "82% ± 1.4"}
    ]},
    {"smiles": "O=c1ccc2ccccc2o1", "note": "[Coumarin]", "values": [
      {"measurement": "MIC", "setting": "[1]; [9]", "result": "214 ± 8.7", "unit": "µM"}
    ]},
    {"smiles": "Cc1cc(=O)oc2cc(O)ccc12", "note": "[4-Methylumbelliferone]", "values": [
      {"measurement": "MIC", "setting": "[1]; [9]", "result": "42.5 ± 2.4", "unit": "µM"}
    ]},
    {"smiles": "Cc1cc(=O)oc2cc(N(C)C)ccc12", "note": "[7-Dimethyl-4-methylcoumarin]", "values": [
      {"measurement": "MIC", "setting": "[1]; [11]", "result": "36.8 ± 7.1", "unit": "µM"},
      {"measurement": "MIC", "setting": "[1]; M. smegmatis mc^2 155, MABA, 37°C, 48 h, listed as 7-Dimethyl-4-methyl coumarin, read-out: MIC", "result": 36.8, "unit": "µM"},
      {"measurement": "MIC", "setting": "[1]; [9]", "result": 38.7, "unit": "µM"},
      {"measurement": "increase of bacterial length", "setting": "[3]; cells treated with 50 μM, versus untreated cells", "result": 4, "unit": "fold"},
      {"measurement": "maximum bacterial length", "setting": "[3]; cells treated with 50 μM, untreated 4.48 ± 1.25 μm", "result": "15.2 ± 3.5", "unit": "μm"},
      {"measurement": "FtsZ localization (immunofluorescence)", "setting": "[7]", "result": "localization of MtbFtsZ was disrupted"},
      {"measurement": "protofilament formation (TEM)", "setting": "[4]", "result": "did not allow the formation of network for a protofilament"}
    ]},
    {"smiles": "[H]/N=C(/N)N[C@H]1[C@H](O)[C@@H](O)[C@H](O[C@@H]2O[C@@H](C)[C@](O)(C=O)[C@H]2O[C@@H]2O[C@@H](CO)[C@H](O)[C@@H](O)[C@@H]2NC)[C@@H](N/C(N)=N\\[H])[C@@H]1O", "note": "[streptomycin, reference compound]", "values": [
      {"measurement": "MIC", "setting": "[1]; [9]", "result": 11.2, "unit": "µM"}
    ]},
    {"smiles": "O=c1cc(O)c2ccccc2o1", "note": "[4-Hydroxycoumarin]", "values": [
      {"measurement": "MIC", "setting": "[1]; [9]", "result": "150 ± 7.4", "unit": "µM"}
    ]},
    {"smiles": "O=c1ccc2ccc(O)c(O)c2o1", "note": "[Daphnetin]", "values": [
      {"measurement": "MIC", "setting": "[1]; [10]", "result": "48.2 ± 6.3", "unit": "µM"}
    ]},
    {"smiles": "CC(C)c1c(O)ccc2c1CC[C@H]1C(C)(C)CCC[C@]21C", "note": "[Totarol]", "values": [
      {"measurement": "inhibition of the GTPase activity of the protein", "setting": "[5]", "result": "68% ± 3.1"},
      {"measurement": "increase of the length of bacteria", "setting": "[8]", "result": 5, "unit": "fold"},
      {"measurement": "inhibition of the polymerization activity of the protein", "setting": "[6]", "result": "74% ± 2"}
    ]},
    {"smiles": "CO[C@H]1/C=C/O[C@@]2(C)Oc3c(C)c(O)c4c(O)c(c(/C=N/N5CCN(C)CC5)c(O)c4c3C2=O)NC(=O)/C(C)=C\\C=C\\[C@H](C)[C@H](O)[C@@H](C)[C@@H](O)[C@@H](C)[C@H](OC(C)=O)[C@@H]1C", "note": "[Rifampicin, reference compound]", "values": [
      {"measurement": "MIC", "setting": "[1]; [9]", "result": 3.9, "unit": "µM"}
    ]},
    {"smiles": "CC1=CC(=O)c2c(O)cccc2C1=O", "note": "[Plumbagin]", "values": [
      {"measurement": "increase of the length of bacteria", "setting": "[8]", "result": 7, "unit": "fold"}
    ]},
    {"smiles": "CCN(CC)c1ccc2c(C)cc(=O)oc2c1", "note": "[7-Diethylamino-4-methylcoumarin]", "values": [
      {"measurement": "MIC", "setting": "[1]; [10]", "result": "70.2 ± 6.2", "unit": "µM"}
    ]},
    {"smiles": "COc1cc2ccc(=O)oc2cc1O", "note": "[scopoletin, reference compound]", "values": [
      {"measurement": "MIC", "setting": "[2]", "result": 42, "unit": "µg/mL"}
    ]},
    {"smiles": "O=c1oc2c(O)c(O)cc3c(=O)oc4c(O)c(O)cc1c4c23", "note": "[Ellagic acid]", "values": [
      {"measurement": "MIC", "setting": "[1]; [11]", "result": "50 ± 2.4", "unit": "µM"},
      {"measurement": "MIC", "setting": "[1]; M. smegmatis mc^2 155, MABA, 37°C, 48 h, listed as ellagic acid, read-out: MIC", "result": 50, "unit": "µM"},
      {"measurement": "MIC", "setting": "[1]; [9]", "result": 25, "unit": "µM"}
    ]}
  ]
}
